Reference: patent publication US20190365675A1, “COMPOSITIONS FOR THE PREVENTION AND/OR TREATMENT OF ALCOHOL USE DISORDERS” (SERVICIO ANDALUZ DE SALUD, priority 2016, published 2019)

Tests used:
Type in all cases: in vivo, Wistar rats
caspase-3 = assay: Caspase-3 mRNA, protein and activity (fluorometric assay) in frontal cortex after ethanol intoxication; conditions: OEA pre-treatment
Method: The animals were treated with intragastric (i.g.) ethanol 3 times a day using an i.g. cannula (16G needle, Fisher Scientific, Waltham, Mass., USA), following a protocol based on a slightly modified standard 4-day alcohol intoxication pattern (Bernier et al., 2002a, b) (FIG. 1A). The ethanol doses were administered every 8 h for a total time of 4 days. The rats treated with ethanol received an initial loading dose of 5 g/kg of ethanol in a 30% solution (w/v) and then a maximum maintenance dose of 3 g/kg, which were determined based on blood ethanol levels (BEL). This repeated standard alcohol intoxication paradigm kept BEL intoxication relatively constant in a range of sedation/ataxia (190 to 430 mg/dl, Table 3), according to the 6-point alcohol intoxication behavior scale (Majchrowicz, 1975). The mean dose of ethanol/rat/day (days 1-4) was 7.06 g/kg, similar to other studies (Obernier et al., 2002a, b). OEA (5 mg/kg, i.p., except initial dose of 10 mg/kg i.p.; synthesized as described in Giuffrida et al., 2000) was dissolved in the vehicle (5% Tween-80 in saline solution) and injected 10 minutes before each of the administrations of ethanol by an intragastric gavage. The anti-inflammatory activity of OEA at 10 mg/kg per intraperitoneal route in the frontal cortex before the injection of LPS (Sayd et al., 2014) was previously referred to. In this study, OEA is repeatedly injected as a pre-treatment before each administration of ethanol. The doses of OEA chosen in this study are in the range of doses tested as being pharmacologically active (5-20 mg/kg, i.p.) (Bilbao et al., 2015). […] The autoradiograph was quantified by densitometry (NIH ImageJ® software, National Biosciences, Lincoln, Nebr. USA) and expressed as optical density (OD). […] The quantitative changes in mRNA levels were estimated by means of RT-PCR, carried out in the presence of the SYBR green primer using a 20-L reaction in a Rotor-Gene (Corbett Research®, Mortlake, NSW, Australia). […] Caspase-3 activity was determined using a fluorometric assay kit (Abnova®, Taiwan) according to the manufacturer's protocol. […]

IL-1β = IL-1β mRNA and protein (ELISA) in frontal cortex and plasma after ethanol intoxication; conditions: OEA pre-treatment
Method: The animals were treated with intragastric (i.g.) ethanol 3 times a day using an i.g. cannula (16G needle, Fisher Scientific, Waltham, Mass., USA), following a protocol based on a slightly modified standard 4-day alcohol intoxication pattern (Bernier et al., 2002a, b) (FIG. 1A). The ethanol doses were administered every 8 h for a total time of 4 days. The rats treated with ethanol received an initial loading dose of 5 g/kg of ethanol in a 30% solution (w/v) and then a maximum maintenance dose of 3 g/kg, which were determined based on blood ethanol levels (BEL). This repeated standard alcohol intoxication paradigm kept BEL intoxication relatively constant in a range of sedation/ataxia (190 to 430 mg/dl, Table 3), according to the 6-point alcohol intoxication behavior scale (Majchrowicz, 1975). The mean dose of ethanol/rat/day (days 1-4) was 7.06 g/kg, similar to other studies (Obernier et al., 2002a, b). OEA (5 mg/kg, i.p., except initial dose of 10 mg/kg i.p.; synthesized as described in Giuffrida et al., 2000) was dissolved in the vehicle (5% Tween-80 in saline solution) and injected 10 minutes before each of the administrations of ethanol by an intragastric gavage. The anti-inflammatory activity of OEA at 10 mg/kg per intraperitoneal route in the frontal cortex before the injection of LPS (Sayd et al., 2014) was previously referred to. In this study, OEA is repeatedly injected as a pre-treatment before each administration of ethanol. […] The quantitative changes in mRNA levels were estimated by means of RT-PCR, carried out in the presence of the SYBR green primer using a 20-L reaction in a Rotor-Gene (Corbett Research®, Mortlake, NSW, Australia). […] The levels of soluble HMGB1, TNF-α, IL-1β and MCP-1 were determined by means of a commercially available enzyme-linked immunosorbent assay kit (ELISA) (Elabscience Biotechnology Co., Ltd., China, for HMGB-1; RayBiotech®, GA, USA, for TNF-α, IL-1β, and MCP-1). The nuclear/cytosol HMGB1 fraction was determined by means of Western blot analysis.

rats = assay: Forced swim test during acute ethanol withdrawal; conditions: 48 h after last ethanol; OEA pre-treatment during intoxication
Method: In this third experiment (n=25), the treatment with ethanol intoxication and pre-treatment with OEA applied in experiment 2 was repeated, and the animals were subjected to elevated plus maze test 24 h and 12 days after the last forced administration of ethanol and to the forced swim test 48 h after the ethanol intoxication protocol. The rats were subjected to the forced swim test two days after the last ethanol force-feeding (see FIG. 1C for the experimental design), and specific behaviors were recorded with a digital video camera for 5 minutes. These same rats were also subjected to the elevated plus maze test equipped with infrared light photography (Panlab, Barcelona, Spain) 1 and 12 days after the last ethanol force-feeding, where the animals were allowed to freely explore the maze for 5 minutes. The tests were performed 3 h after the start of the dark phase.

## CCCCCCCC/C=C\CCCCCCCC(=O)NCCO [OEA, oleoylethanolamide]
caspase-3
  Alcohol-induced overexpression of caspase-3 mRNA: unable to prevent
  Ethanol-induced overexpression of caspase-3 protein: prevented
caspase-3; fluorometric assay
  Ethanol-induced increase in activity of caspase-3: reverted
IL-1β; frontal cortex, ELISA
  Ethanol-induced increase in IL-1β protein levels: prevented
IL-1β; frontal cortex
  Ethanol-induced increase in IL-1β mRNA: did not prevent
IL-1β; plasma, ELISA
  Ethanol-induced increase in IL-1β plasma levels: prevented
rats
  Forced swim test: immobility: normalizing
  Forced swim test: latency: normalizing
  Forced swim test: swimming: normalizing
